Source: patent US20210346461A1, “UTILIZATION OF ENDOGENOUS OUBAIN-REGULATING COMPOUNDS AND COMPOSITIONS THEREOF IN TREATMENT OF VASCULAR DISEASE” (priority 2020, published 2021)
Entries after “also recorded” stand apart in the source; their conditions may differ. Where two headings read alike, the source gives them in different places.

Tests used:
[1] = test system: pregnant uterine arteries; experiment: PGI2 release/response in pregnant uterine arteries; type: cell-based
From the text: FIG. 1A is a graph of laboratory data indicating PGI2 response in pregnant uterine arteries at various levels of Ouabain, wherein GABA is provided and Taurine is not—both without and with the provision of AII.
FIG. 1B is a graph of laboratory data indicating PGI2 response in pregnant uterine arteries at various levels of Ouabain, wherein both GABA and Taurine are provided—without and with the provision of AII.
FIG. 3A is a graph of laboratory data indicating PGI2 response in pregnant uterine arteries at various levels of GABA, wherein neither Taurine nor Ouabain is provided—without and with the provision of AII.
FIGS. 4A and 4B are graphs of laboratory data illustrating PGI2 response to taurine levels, GABA levels, and the provision of AII in pregnant uterine vessels with lower and higher Ouabain conditions, respectively.
FIGS. 5B is a graph of laboratory data illustrating PGI2 response in pregnant uterine arteries to the provision of various combinations of GABA, AII, and bicuculine.
(§1) FIG. 6 is a graph illustrating changes in PGI2 response versus basal levels, in both pregnant uterine vessels and pregnant systemic vessels, when the endothelium is removed.

Cyclooxygenase (COX) = conditions: pharmacological blockade of COX; cited from earlier work
[2] = test system: intact nonpregnant systemic vessels; experiment: PGI2 response in intact nonpregnant systemic vessels (GABA dose response curves); type: cell-based, sheep; conditions: for PGI2 levels on addition of Nanomolar Ouabain: most concentrations of GABA
From the text: FIG. 2A is a graph of laboratory data indicating PGI2 response in intact nonpregnant systemic vessels at various levels of GABA, wherein neither Taurine nor Ouabain is provided without and with the provision of AII.
FIG. 2B is a graph of laboratory data indicating PGI2 response in intact nonpregnant systemic vessels at various levels of GABA, wherein neither Taurine nor AII is provided—without and with the provision of Ouabain.
FIG. 2C is a graph of laboratory data indicating PGI2 response in intact nonpregnant systemic vessels at various levels of GABA, wherein AII is provided and Taurine is not—without and with the provision of Ouabain.
In FIGS. 2A-2C, GABA dose response curves of systemic vessels in 18 day postpartum sheep are provided. These vessels are believed to be representative of non-pregnant normotensive systemic vessels. […] Accordingly, it appears that at least one of Taurine or EO (or the like) may be needed to up-regulate the GABA-a receptor to augment PGI2 levels in the presence of nanomolar ouabain, or may at least be substantially helpful to increase PGI2 levels.

[3] = test system: pregnant systemic arteries; experiment: PGI2 release/response in pregnant systemic arteries; type: cell-based
From the text: FIG. 3B is a graph of laboratory data indicating PGI2 response in pregnant systemic arteries at various levels of GABA, wherein neither Taurine nor Ouabain is provided—without and with the provision of AII.
FIGS. 5A is a graph of laboratory data illustrating PGI2 response in pregnant systemic arteries to the provision of various combinations of GABA, AII, and bicuculine.
as §1

[4] = cited from earlier work

NCCS(=O)(=O)O [Taurine, 2-amino-ethane sulfonic acid]
overall PGI2 release with vs without Taurine ([1]; FIG. 1A vs 1B, regardless of AII presence): overall PGI2 release appears higher without Taurine

CC(=O)Oc1ccccc1C(=O)O [aspirin]
resting blood pressure (Cyclooxygenase (COX)): does not substantially affect resting blood pressure

NCCCC(=O)O [GABA]
PGI2 response to GABA ([2]; FIG. 2A/2B, 18 day postpartum sheep, no Ouabain, no Taurine): no PGI2 response; also recorded: did not release significant PGI2
PGI2 release on exposure to GABA ([3]; absence of AII): increased PGI2 release; also recorded: responded to make PGI2
blood pressure ([4]; eHTN humans): lower blood pressure
blood pressure ([4]; normotensive patients): no effect to reduce blood pressure
PGI2 release with GABA and AII ([1]; FIG. 4A, low levels of taurine and low Ouabain): PGI2 release increased
PGI2 release on addition of GABA ([1]; FIG. 5B col. 2, GABA alone, no AII): insignificant effect on PGI2 release
PGI2 release on addition of GABA ([1]; together with AII): increase PGI2; also recorded: increased PGI2 release

NCC(CP(=O)(O)O)c1ccc(Cl)cc1 (stereo not shown) [phaclofen]
PGI2 release on GABA-b receptor blockade ([1]; experiments similar to FIGS. 5A/5B in pregnant vessels, data not shown): did not affect PGI2 release

C[C@@H]1O[C@@H](O[C@H]2C[C@@H](O)[C@]3(CO)[C@H]4[C@H](O)C[C@]5(C)[C@@H](C6=CC(=O)OC6)CC[C@]5(O)[C@@H]4CC[C@]3(O)C2)[C@H](O)[C@H](O)[C@H]1O [Ouabain]
PGI2 levels on addition of Nanomolar Ouabain ([2]; FIG. 2B, without AII, no Taurine): significant increase in PGI2 levels
PGI2 levels on addition of Nanomolar Ouabain ([2]; FIG. 2C, with AII, no Taurine): significant increase in PGI2 levels
PGI2 release with increase in Ouabain ([1]; FIGS. 4A/4B, Ouabain from −10M to −9M, low taurine, GABA approx. −7M): higher PGI2 release

CN1CCc2cc3c(cc2[C@H]1[C@@H]1OC(=O)c2c1ccc1c2OCO1)OCO3 [bicuculine]
PGI2 release on blocking GABA-a receptors ([3]; FIG. 5A): reduced PGI2 release
PGI2 release on blocking GABA-a receptors ([1]; FIG. 5B, also when additional GABA was added (col. 5)): substantially reduced PGI2 release

Angiotensin II [AII]
PGI2 formation by presence or absence of Angiotensin II ([2]; FIG. 2A, exposed to GABA, without Taurine or EO): no significant PGI2 formation
PGI2 release on addition of AII ([2]; FIG. 2B vs 2C, in the presence of Ouabain, especially at higher GABA): substantially more PGI2 release
relationship between PGI2 release and AII presence ([3]; FIG. 3B, various GABA levels, no Taurine, no Ouabain, compared with uterine circuit): substantially inverted
PGI2 release in the presence of AII ([3]; FIG. 6, endothelium removed): increased
effect of presence or absence of AII on PGI2 release ([1]; FIG. 1A, GABA provided, without taurine, various levels of Ouabain): negligible effect on PGI2 release
PGI2 release difference responsive to presence or absence of AII ([1]; FIG. 3A, GABA concentrations of −7M, −6M, −5M): no significant PGI2 release difference
PGI2 release with AII vs without AII ([1]; FIG. 3A, most levels of GABA, no Taurine, no Ouabain): more PGI2 is released
PGI2 release on further addition of AII ([1]; FIG. 5B col. 4, bicuculine and GABA present): even further decreased PGI2
PGI2 release in the presence of AII ([1]; FIG. 6, endothelium removed): reduced

COc1ccc2c(c1)c(CC(=O)O)c(C)n2C(=O)c1ccc(Cl)cc1 [indomethacin]
resting blood pressure (Cyclooxygenase (COX)): does not substantially affect resting blood pressure
